Assay results from publication PMC6416395, “B1.12: a novel peptide interacting with the extracellular loop of the EBV oncoprotein LMP1” (Scientific Reports, 2019).
*: point of attachment. FITC = O=C1OC2(c3ccc(O)cc3Oc3cc(O)ccc32)c2ccc(NC(=S)*)cc21

B1: B1.12 phage clone (other)
chain: ACPLDLRSPCGGGS
notes: whole phage particles were used and detected with an anti-M13 antibody; also called phage B1.12; positive phage B1.12; source: M13 phage clone from the Ph.D.-C7C library (New England Biolabs), amplified in E. coli ER2738 and titrated; not shown: M13 coat protein pIII (on the phage particle), C-terminal, kept
B2: B1.12 peptide (peptide)
peptide: ACPLDLRSPCG
notes: peptide selected by phage display from the Ph.D.-C7C library against the B1 loop peptide of LMP1; Made on Rink amide MBHA resin, so the C-terminus may be an amide (surmised); also called selected peptide B1.12; source: synthetic peptide (solid-phase Fmoc chemistry, RP-HPLC purified)
B3: B1 peptide (first extracellular loop of LMP1) (peptide)
peptide: CMSDWTGG
notes: first extracellular loop of latent membrane protein 1 (LMP1), Epstein-Barr virus; Made on Rink amide resin, so the C-terminus may be an amide (surmised); also called target B1; B1 loop of LMP1; source: synthetic peptide (solid-phase Fmoc chemistry, RP-HPLC purified)

How the values were obtained:
C666.1 cells = assay: Fluorescence microscopy, C666.1; format: cell-based; conditions: 10 µM FITC-labeled peptide, (1 hour elsewhere in the source), fixed C666.1 cells
Procedure: To further investigate the fixation of the peptide on C666.1 cells, fluorescence microscopy was performed. […] After being washed with PBS, the fixation of LMP1 was detected by Alexa-fluor 405 labeled secondary antibody (1/100). HeLa/Gpt cells were also stained as described above to serve as negative control. Images were analyzed using an EVOS Floid Cell Imaging Station (Life Technologies).

[1] = test system: LMP1 positive cells (C666.1, HeLa/LMP1); assay: Cellular uptake by flow cytometry, LMP1 positive cells; format: cell-based; conditions: FITC-labeled peptide 100 μM, 24 hours, C666.1 and HeLa/LMP1
Procedure: (§1) The cellular uptake of the FITC labeled B1.12 peptide/unrelated peptide was analyzed by flow cytometry. C666.1, HeLa/LMP1, and HeLa/Gpt cells, were seeded at a density of 4 × 10^5 cells/mL at 37 °C for 24 hours, and then incubated with 100 μM of both FITC-labeled peptides for 24 hours. Cells were washed three times, trypsinized, centrifuged at 1700 rpm for 5 minutes and then resuspended in 0.35 mL of PBS. The fluorescence associated to the cells was measured using LSR Fortessa X-20 (Becton Dickinson) for HeLa/LMP1 or Attune NxT Flow Cytometer (Thermofisher) cytometer for C666.1 and HeLa/Gpt cells.

HeLa/Gpt cells = assay: Fluorescence microscopy, HeLa/Gpt; format: cell-based; conditions: 10 µM FITC-labeled peptide, HeLa/Gpt negative control
Procedure: To further investigate the fixation of the peptide on C666.1 cells, fluorescence microscopy was performed. Approximately 1 × 10^6 cells were washed 3 times with PBS, fixed with 4% parafolmaldehyde for 15 minutes, blocked by 5 mg/mL BSA for 1 hour, and incubated with 10 μM FITC labeled B1.12 peptide or anti-LMP1 antibody (1/500 Dako) for 1 hour at room temperature. After being washed with PBS, the fixation of LMP1 was detected by Alexa-fluor 405 labeled secondary antibody (1/100). HeLa/Gpt cells were also stained as described above to serve as negative control. Images were analyzed using an EVOS Floid Cell Imaging Station (Life Technologies).

[2] = test system: LMP1 negative cells (HeLa/Gpt); assay: Cellular uptake by flow cytometry, LMP1 negative cells; format: cell-based; conditions: FITC-labeled peptide 100 μM, 24 hours
Procedure: as §1

[3] = target: B3; assay: ELISA; B1 peptide (100 µg) coated on the plate; about 1 × 10^10 pfu of phage clone added, 1 hour at room temperature; ten washes with 0.5% TBST; anti-M13 antibody and HRP anti-mouse, ABTS; conditions: both partners purified
[4] = target: B3; assay: ELISA; competitive inhibition: B1 peptide coated (100 µl of 1 mg/mL in NaHCO3); B1.12 peptide incubated 1 hour at room temperature, then B1.12 phage (2 × 10^10 pfu) 1 hour; bound phage detected by anti-M13 antibody; conditions: both partners purified
[5] = target: Latent membrane protein 1 (LMP1) on HeLa/LMP1 cells (Epstein-Barr virus) (UniProt P03230); assay: ELISA; competitive inhibition on HeLa/LMP1 cells fixed with 4% paraformaldehyde (10^4 cells/well); synthetic peptide 50-200 µM at 37 °C for 1 hour, then B1.12 phage; anti-M13 antibody detection
B1.12 peptide = target: B2; assay: ITC; 30 °C, NaHCO3 buffer 0.1 M pH 5.7; B1 peptide (0.2 mM) in the syringe injected (2 µL per injection) into B1.12 peptide (0.01 mM) in the cell; conditions: both partners purified

Latent membrane protein 1 (LMP1) on HeLa/LMP1 cells (Epstein-Barr virus), sequence (P03230 whole entry): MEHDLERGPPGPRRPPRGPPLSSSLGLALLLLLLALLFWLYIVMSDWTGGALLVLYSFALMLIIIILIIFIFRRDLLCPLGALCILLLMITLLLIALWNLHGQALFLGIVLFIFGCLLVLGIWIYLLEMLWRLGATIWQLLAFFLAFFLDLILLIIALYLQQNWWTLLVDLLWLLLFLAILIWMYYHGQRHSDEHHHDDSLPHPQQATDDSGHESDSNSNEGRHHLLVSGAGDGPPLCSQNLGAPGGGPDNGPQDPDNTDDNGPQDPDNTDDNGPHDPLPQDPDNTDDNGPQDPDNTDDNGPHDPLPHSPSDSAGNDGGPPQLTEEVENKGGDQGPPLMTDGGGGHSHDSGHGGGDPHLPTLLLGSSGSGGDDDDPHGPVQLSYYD

For “FITC-labeled B1.12 peptide: N-terminus FITC labeled B1.12 ({FITC}-ACPLDLRSPCG-NH2; cysteine pairing not given here)”, the “colocalization with LMP1” value (C666.1 cells) was “co-localized with LMP1”, the cellular uptake [1] was “significantly higher uptake” and the “binding to cells (microscopy)” value (HeLa/Gpt cells) was “no binding was observed”. For the same molecule, the cellular binding/uptake [2] was “no binding”.

B1: binds [3].

In the case of B2, the “inhibition ratio of phage B1.12 binding at 400 µM peptide” value [4] is reported as about 43% and the inhibition ratio of phage B1.12 binding at 100 µM peptide [5] is reported as 45%.

B3: binds (B1.12 peptide).
